{"source": "patent US20080096967A1", "about": "“Formulations for Injection of Catecholic Butanes, Including Ndga Compounds, Into Animals” (priority 2005, published 2008)", "key": {"[1]": {"system": "Beagle dogs", "test": "Intravenous infusion toxicity study (maximum tolerable dose, escalating doses) in Beagle dogs", "type": "in vivo", "description": "The purpose of this study was to determine the maximum tolerable dose of tetra-O-methyl NDGA (M4N) when administered by intravenous infusion to male and female Beagle dogs, supplied by Convince Research Products (Cumberland, Va., U.S.A). Two Beagle dogs, one male and one female, about 6 to 9 months old at first dose, were administered the cyclodextrin vehicle containing 20% (w/v) HP-β-CD and 50% PEG 300, on Study Day (“SD”) 1, followed by escalating levels of M4N prepared in the cyclodextrin vehicle (i.e., the test articles). The preformed cyclodextrin vehicle and test articles were stored at room temperature. Sterile water, used as diluent, was obtained from Baxter Health Care Corp. (Deerfield, Mich., U.S.A) or Abbott Laboratories (North Chicago, Ill., U.S.A.) and stored at room temperature.\nThe test article, cyclodextrin vehicle and diluent were considered 100% pure for formulation purposes. Dose formulations were prepared on each day of dosing by adding the appropriate amount of test article or cyclodextrin vehicle into a glass container using a sterile syringe. For each dose, an equal amount of sterile water was added to the M4N formulation or cyclodextrin vehicle to form a 50:50 (v/v) dilution. No dilution was required for the 200 mg/kg dose. All formulations were mixed by gentle inversion to ensure that a proper solution was formed. Formulations were loaded into medication cassettes and stored at room temperature until needed.\nM4N was administered at 25 mg/kg on SD 3, 50 mg/kg on SD 5, and 100 mg/kg on SD 8. Only the female received the full 100 mg/kg dose; due to mechanical malfunctions caused by precipitation in the infusion line, the male dog received approximately 72 mg/kg (i.e., 72%) of the intended dose. Two additional Beagle dogs were administered a 200 mg/kg dose; however, mechanical difficulties ensued and the male dog received approximately 180 mg/kg (90%) of the intended dose, whereas the amount the female received could not be determined.\nUsing aseptic surgical techniques, the animals were catheterized with an in-dwelling catheter inserted into the jugular vein, and were treated prophylactically with an analgesic and antibiotic on the day of surgery and with antibiotics and/or analgesics for 8 days following surgery.\nFollowing completion of each intravenous infusion, 1 mL of sterile saline was administered as a slow bolus injection to flush the test material from the infusion line into the animal, followed by an injection of heparin-saline solution to fill the infusion line to maintain patency. The animals were observed. Cageside observation included observation for mortality, morbundity, general health, and signs of toxicity. […]"}, "[2]": {"test": "Solubility of M4N in water-soluble organic solvents (Table 20, visual inspection)", "type": "physicochemical", "description": "A 100 mL solution of M4N at a concentration of about 25 mg/mL in PEG 300 was made as follows. About 100 mL of PEG 300 were added to a glass beaker containing a stir bar. The beaker was placed on a magnetic plate and the stir bar was set to stir at medium speed. About 2.5 g of M4N were slowly added to the PEG 300 in the center of the beaker with the aid of a spatula to prevent M4N from sticking to the beaker wall. The M4N/PEG 300 mixture was stirred for 24 hr or until all M4N had dissolved or was uniformly suspended without any clumps being present. The M4N/PEG 300 mixture was optionally heated at about 60° C. for about 30 min. (or longer if a larger volume of solution was desired, for example, 1 hr at 60° C. for 500 mL of the M4N/PEG 300 mixture), or longer as needed to ensure complete dissolution of M4N. […] If crystals formed, the M4N/PEG 300 solution could be heated again at 60° C. for about 1 hr, with stirring, on a hot magnetic plate until all M4N was dissolved back in solution. The final M4N/PEG 300 solution was stored at room temperature and was kept protected from light. This process may be scaled up or down to obtain the requisite volume or concentration of M4N. Formulations containing M4N in other PEGs may be similarly made, such as, for example, by substituting PEG 300 in the process described above with PEG 400 or PEG 400 monolaurate.\nThis process may be scaled up or down to obtain the requisite volume or concentration of M4N and the heating temperature may be increased or decreased to achieve dissolution of M4N. Formulations containing M4N in other water-insoluble lipids combined with non-ionic surfactants, ionic surfactants or water-soluble organic solvents may be similarly made, such as, for example, by substituting sesame oil or Tween® 20 in the process described above with corn oil, olive oil, soybean oil, peppermint oil, Tween® 80, d-alpha-tocopheryl polyethylene glycol 1000 succinate (TPGS), lecithin, PEG 300, PEG 400, PEG 400 monolaurate, glycerol, polyvinylpyrrolidone (“PVP”), propylene glycol (“PG”), or other solubilizing agents, and combinations thereof."}}, "data": [{"compound": "COc1ccc(C[C@@H](C)[C@@H](C)Cc2ccc(OC)c(OC)c2)cc1OC", "note": "[Formulation M4N, meso-1,4-bis(3,4-dimethoxyphenyl)-2,3-dimethylbutane]", "values": [{"measurement": "Individual Body Weights", "setting": "[1]; Male dog 10567, SD13", "value": 10.2, "unit": "kg"}, {"measurement": "gross pathology and microscopic changes", "setting": "[1]; dog, in vivo", "value": "no test-article related gross pathology findings or microscopic changes"}, {"measurement": "doses at which no treatment-related adverse effects were observed", "setting": "[1]; dog, in vivo, iv", "value": "up to 200 mg/kg"}, {"measurement": "mortality", "setting": "[1]; escalating IV infusion doses 25 to 200 mg/kg in 20% HP-β-CD/50% PEG 300 vehicle", "value": "no effect"}, {"measurement": "Dissolution After Heating", "setting": "[2]; 40% Propylene Glycol, 10% Ethanol, M4N 10 mg/mL, temperature not given", "value": "N"}, {"measurement": "Stability Time at Room Temperature", "setting": "[2]; Ethanol 100%, M4N 1 mg/mL", "value": ">3", "unit": "days"}, {"measurement": "Dissolution After Heating", "setting": "[2]; Ethanol 100%, M4N 10 mg/mL, heating at 37° C.", "value": "N at 37 °C"}, {"measurement": "Dissolution After Heating", "setting": "[2]; Glycerol 100%, M4N 1 mg/mL, heating at 70° C.", "value": "Y at 70 °C"}, {"measurement": "Dissolution After Heating", "setting": "[2]; Glycerol 100%, M4N 10 mg/mL, heating at 70° C.", "value": "Y at 70 °C"}, {"measurement": "Dissolution After Heating", "setting": "[2]; Glycerol 100%, M4N 20 mg/mL, heating at 70° C.", "value": "Y at 70 °C"}, {"measurement": "Dissolution After Heating", "setting": "[2]; PEG 300 33%, M4N 10 mg/mL, heating at 50° C.", "value": "N at 50 °C"}, {"measurement": "Stability Time at Room Temperature", "setting": "[2]; PEG 300 100%, M4N 25 mg/mL", "value": "<7", "unit": "days"}, {"measurement": "Dissolution After Heating", "setting": "[2]; PEG 300 100%, M4N 25 mg/mL, heating at 50° C.", "value": "Y at 50 °C"}, {"measurement": "Stability Time at Room Temperature", "setting": "[2]; PEG 300 100%, M4N 30 mg/mL", "value": "<3", "unit": "days"}, {"measurement": "Dissolution After Heating", "setting": "[2]; PEG 300 100%, M4N 30 mg/mL, heating at 50° C.", "value": "Y at 50 °C"}, {"measurement": "Stability Time at Room Temperature", "setting": "[2]; PEG 300 100%, M4N 40 mg/mL", "value": "<1", "unit": "days"}, {"measurement": "Dissolution After Heating", "setting": "[2]; PEG 300 100%, M4N 40 mg/mL, heating at 50° C.", "value": "Y at 50 °C"}, {"measurement": "Stability Time at Room Temperature", "setting": "[2]; PEG 300 100%, M4N 50 mg/mL", "value": "<1", "unit": "days"}, {"measurement": "Dissolution After Heating", "setting": "[2]; PEG 300 100%, M4N 50 mg/mL, heating at 60° C.", "value": "Y at 60 °C"}, {"measurement": "Dissolution After Heating", "setting": "[2]; PEG 300 100%, M4N 100 mg/mL, heating at 60° C.", "value": "Y at 60 °C"}, {"measurement": "Dissolution After Heating", "setting": "[2]; PEG 400 5%, M4N 10 mg/mL, heating at 50° C.", "value": "N at 50 °C"}, {"measurement": "Stability Time at Room Temperature", "setting": "[2]; PEG 400 100%, M4N 25 mg/mL", "value": "<7", "unit": "days"}, {"measurement": "Dissolution After Heating", "setting": "[2]; PEG 400 100%, M4N 25 mg/mL, heating at 50° C.", "value": "Y at 50 °C"}, {"measurement": "Stability Time at Room Temperature", "setting": "[2]; PEG 400 100%, M4N 30 mg/mL", "value": "<3", "unit": "days"}, {"measurement": "Dissolution After Heating", "setting": "[2]; PEG 400 100%, M4N 30 mg/mL, heating at 50° C.", "value": "Y at 50 °C"}, {"measurement": "Stability Time at Room Temperature", "setting": "[2]; PEG 400 100%, M4N 40 mg/mL", "value": "<1", "unit": "days"}, {"measurement": "Dissolution After Heating", "setting": "[2]; PEG 400 100%, M4N 40 mg/mL, heating at 50° C.", "value": "Y at 50 °C"}, {"measurement": "Stability Time at Room Temperature", "setting": "[2]; PEG 400 100%, M4N 50 mg/mL", "value": "<1", "unit": "days"}, {"measurement": "Dissolution After Heating", "setting": "[2]; PEG 400 100%, M4N 50 mg/mL, heating at 60° C.", "value": "Y at 60 °C"}, {"measurement": "Dissolution After Heating", "setting": "[2]; PEG 400 100%, M4N 100 mg/mL, heating at 60° C.", "value": "Y at 60 °C"}, {"measurement": "Dissolution After Heating", "setting": "[2]; PEG 400 monolaurate 100%, M4N 20 mg/mL, heating at 50° C.", "value": "Y at 50 °C"}, {"measurement": "Dissolution After Heating", "setting": "[2]; PEG 400 monolaurate 100%, M4N 50 mg/mL, heating at 50° C.", "value": "Y at 50 °C"}, {"measurement": "Dissolution After Heating", "setting": "[2]; PVP 15%, M4N 1 mg/mL, heating at 90° C.", "value": "N at 90 °C"}, {"measurement": "Dissolution After Heating", "setting": "[2]; PVP 15%, M4N 10 mg/mL, heating at 90° C.", "value": "N at 90 °C"}, {"measurement": "Stability Time at Room Temperature", "setting": "[2]; Propylene Glycol 100%, M4N 1 mg/mL", "value": "<1", "unit": "days"}, {"measurement": "Dissolution After Heating", "setting": "[2]; Propylene Glycol 100%, M4N 1 mg/mL, heating at 55° C.", "value": "Y at 55 °C"}, {"measurement": "Stability Time at Room Temperature", "setting": "[2]; Propylene Glycol 100%, M4N 10 mg/mL", "value": "<1", "unit": "days"}, {"measurement": "Dissolution After Heating", "setting": "[2]; Propylene Glycol 100%, M4N 10 mg/mL, heating at 55° C.", "value": "Y at 55 °C"}, {"measurement": "Stability Time at Room Temperature", "setting": "[2]; Propylene Glycol 100%, M4N 20 mg/mL", "value": "<1", "unit": "days"}, {"measurement": "Dissolution After Heating", "setting": "[2]; Propylene Glycol 100%, M4N 20 mg/mL, heating at 55° C.", "value": "Y at 55 °C"}]}]}
